# Measured values taken from patent US4259332A, “Novel taurine derivatives” (priority 1979, dated 1981).
# Columns and labels:
# [1] = Toxicology, oral treatment of mice for 180 days, Compound B; format: in vivo, mouse; details: 200 mg/kg orally
# [2] = Protection against hepatic intoxication by CCl4 and cold, Compound B (BSF in blood); format: in vivo; details: 500 mg/kg endoperitoneal
# Experimental: Oral administration of 5 ml/kg of a 20% solution of CCl4 in oil, with simultaneous endoperitoneal administration of 500 mg/kg of Compound B, was followed by exposure for 5 hours at 4° C. BSF in the blood (30 mg/kg i.v.) was tested. A comparison product, homocysteinethiolactone (OCT) was employed.
# 10 Animals were treated per group, and the results expressed as percentage change with respect to the controls were as shown in Table 4.
# [3] = BSF bile excretion after CCl4; format: in vivo, rat; details: 100 mg/kg endoperitoneal 4 days, CCl4 10% 10 ml/kg
# Experimental: Endoperitoneal administration to rats of 100 mg/kg of Compound B for 4 days was followed on the fourth day, one hour after the last administration, with the rats receiving 10 ml/kg orally of a 10% solution of CCl4 in oil. BSF (5 mg/kg) in the bile was tested.
# [4] = Curative effect on intoxication by CCl4; format: in vivo, rat; details: 100 mg/kg endoperitoneal 1 h after CCl4; BSF tested after 4 hours
# Experimental: Oral administration to rats of 10 ml/kg of a 10% solution of CCl4 in oil was followed with endoperitoneal administration of 100 mg/kg of Compound B after 1 hour. BSF (50 mg/kg i.v.) in the blood was tested after 4 hours. 5 Animals were used per group, and expressed as percentage change with respect to the control, the Compound B gave a reduction of -34.2.
# [5] = Intoxication by CCl4 and curative treatment; format: in vivo; details: 100 mg/kg endoperitoneal on days 1, 2 and 3
# Experimental: On the first day there was oral administration of 10 ml/kg of a 10% solution of CCl4 in oil and simultaneous endoperitoneal administration of 100 mg/kg of Compound B. On the second and third days, there was endoperitoneal administration of 100 mg/kg of Compound B, then testing of BSF (50 mg/kg i.v.) in the blood.
# 5 Animals were used per group, and expressed as pecentage variation with respect to the control, there was a reduction by Compound B of 16.1.
# [6] = Antilipemic action, Morris, Handler or Nath diet, Compound B; format: in vivo, Wistar rat; details: for Bile BSF, percentage change vs control / Liver total lipids, percentage change vs control / Serum total cholesterol, percentage change vs control / Serum total lipids, percentage change vs control / Liver fresh organic weight, percentage change vs control / Serum beta-lipoproteins, percentage change vs control: 45 days, 200 mg/kg orally
# Experimental: Wistar rats were treated for 45 days with a Morris diet, a Handler diet or a Nath diet. Simultaneously with the diet they received each day 200 mg/kg of Compound B or choline (except for the Nath diet) orally.
smiles,measurement,setting,value
"COc1cc(C(=O)OCCN(CCOC(=O)c2cc(OC)c(OC)c(OC)c2)CCS(=O)(=O)O)cc(OC)c1OC [Compound B, N,N-di-[2-(3,4,5-trimethoxybenzoyloxy)ethyl]taurine]",Mortality,[1],No mortality occurred
same,"Hepatic intoxication protection, percentage change of BSF in blood vs controls",[2]; test number 1,-27.5%
same,"Hepatic intoxication protection, percentage change of BSF in blood vs controls",[2]; test number 2,-17.0%
same,"BSF bile excretion, percentage of excretion",[3]; 30 min.,44.1%
same,"BSF bile excretion, percentage of excretion",[3]; 60 min.,50.9%
same,"BSF in the blood, percentage change vs control (reduction)",[4],-34.2%
same,"BSF in the blood, percentage variation vs control (reduction)",[5],16.1%
same,"Bile BSF, percentage change vs control","[6]; Handler diet, B and Choline",+23.4%
same,"Liver total lipids, percentage change vs control","[6]; Handler diet, B and Choline",-29.1%
same,"Serum total cholesterol, percentage change vs control","[6]; Handler diet, B and Choline",-7.3%
same,"Serum total lipids, percentage change vs control","[6]; Handler diet, B and Choline",+9.1%
same,"Liver fresh organic weight, percentage change vs control","[6]; Handler diet, second B column",-13.3%
same,"Liver fresh organic weight, percentage change vs control",[6]; Handler diet,-24.9%
same,"Liver total lipids, percentage change vs control",[6]; Handler diet,-37.7%
same,"Serum total cholesterol, percentage change vs control",[6]; Handler diet,-6.3%
same,"Serum total lipids, percentage change vs control",[6]; Handler diet,-15.9%
same,"Bile BSF, percentage change vs control",[6]; Morris diet,+23.8%
same,"Liver total lipids, percentage change vs control",[6]; Morris diet,-11.5%
same,"Serum beta-lipoproteins, percentage change vs control",[6]; Morris diet,-23.7%
same,"Serum total cholesterol, percentage change vs control",[6]; Morris diet,-23.2%
same,"Serum total lipids, percentage change vs control",[6]; Morris diet,-22.4%
same,"Liver total lipids, percentage change vs control",[6]; Nath diet,-23.4%
same,"Serum beta-lipoproteins, percentage change vs control",[6]; Nath diet,-29.7%
same,"Serum total cholesterol, percentage change vs control",[6]; Nath diet,-35.2%
same,"Serum total lipids, percentage change vs control",[6]; Nath diet,-20.6%
same,Oral absorption (deduced from diet tests),"[6]; oral, powder with the diet",good oral absorption
